Experimental data taken from patent publication US20220348590A1, “CYCLOOXYGENASE-2 INHIBITORS AND USES THEREOF” (The Board Institute, Inc., priority 2019, published 2022).
pIC50: −log10 of the molar value. Where two headings read alike, the source gives them in different places.

What was measured:
MDR1 = experiment: MDR1-MDCKII permeability and efflux; format: in vitro ADME; conditions: dog, MDCK-MDR1; for Papp A→B: read-out: MDR1-MCKII Papp A-B; for Papp B→A: read-out: MDR1-MCKII Papp B-A
[1] = target: T1, human recombinant COX2 (hCOX2) (UniProt P35354); experiment: LCMS-based COX2 enzymatic inhibition assay (PGE2 quantification); format: biochemical; set-up: COX2 2 minutes pge2/pge2d4 area ratio Avg; other: 2 minutes; readout pge2/pge2d4 area ratio; average; COX2 2 minutes pge2/pge2d4 area ratio Avg; LLE; average LLE; COX2 2 minutes pge2 area (counts) Avg; readout pge2 area (counts); other: 2 min; "ovine COX2 (oCOX2), human recombinant COX2 (hCOX2)"; conditions: for pIC50: average
T1 sequence (P35354 1-604): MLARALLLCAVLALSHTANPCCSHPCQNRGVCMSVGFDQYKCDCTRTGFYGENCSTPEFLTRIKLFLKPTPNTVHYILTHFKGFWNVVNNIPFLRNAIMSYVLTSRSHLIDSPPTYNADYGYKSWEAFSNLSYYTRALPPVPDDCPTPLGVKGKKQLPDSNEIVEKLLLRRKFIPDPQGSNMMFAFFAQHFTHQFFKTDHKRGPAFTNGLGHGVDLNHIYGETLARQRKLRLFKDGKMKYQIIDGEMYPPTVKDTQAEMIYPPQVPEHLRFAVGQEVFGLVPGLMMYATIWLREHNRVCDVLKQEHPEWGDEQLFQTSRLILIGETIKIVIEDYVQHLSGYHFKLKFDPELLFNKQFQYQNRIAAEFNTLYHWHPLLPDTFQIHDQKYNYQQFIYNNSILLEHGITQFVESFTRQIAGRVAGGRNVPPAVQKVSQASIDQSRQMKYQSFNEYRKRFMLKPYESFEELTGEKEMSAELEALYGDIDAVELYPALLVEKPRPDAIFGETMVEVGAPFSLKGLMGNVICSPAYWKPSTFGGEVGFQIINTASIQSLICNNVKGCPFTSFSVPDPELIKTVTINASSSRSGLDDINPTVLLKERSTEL
Method in brief: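 Ovine COX-1 (0.1 μg) or human recombinant COX2 (0.2 μg) in 100 mM Tris.HCl pH 8.0 with hematin and epinephrine, preincubated with inhibitor 10 min at 37 °C. Reaction with 5 μM arachidonic acid stopped after 2 min with HCl; PGE2 quantified by LC-MS-MS. IC50 from 12 concentrations in triplicate.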

[2] = Human Plasma Protein Stability (% Remaining); format: in vitro ADME; conditions: average
[3] = mouse brain protein binding (BPB) assay; format: in vitro ADME
Method: We have adapted a previously reported cyclooxygenase enzymatic assay utilizing LCMS quantification of PGE2 as the product of COX-1 and COX2 catalyzed conversion of arachidonic acid to evaluate the binding properties of newly synthesized ligands [Cao, 2011]. These optimized and miniaturized (384-well plates) LCMS-based COX-1 and COX2 enzymatic assays enabled us to quickly evaluate newly synthesized ligands for COX2 binding affinity and selectivity vs COX-1. Using a shorter ligand-enzyme incubation time in the LCMS assay (2 minutes vs 10 minutes) also permitted us to prioritize ligands with faster binding kinetics. Considering the relatively slow on-rate kinetics of known coxibs, due to their 3-step binding mechanism [Marnett, 2009], we believe that optimizing this critical parameter will be key to the successful development of a COX2 PET tracer. Using these enzymatic assays, we have evaluated>200 newly synthesized ligands against COX2 and >20 ligands against COX-1. Another critical property necessary for a good PET radiotracer is to have low non-specific binding (NSB) to increase the free fraction and maximize the signal to noise ratio. This property can be evaluated using in-vitro protein binding assays, and we have now evaluated>50 newly synthesized ligands in mouse, rat and human plasma protein binding (PPB) assays as well as >15 ligands in a mouse brain protein binding (BPB) assay.

Rat Microsome Stability = format: in vitro ADME; conditions: rat microsomes
[4] = 2 minutes, readout pge2/pge2d4 area ratio, average LLE
[5] = 2 minutes, readout pge2/pge2d4 area ratio, read-out: COX2 2 minutes pge2/pge2d4 area ratio Avg. IC50
[6] = 2 minutes, readout pge2 area (counts), average LLE
[7] = 2 minutes, readout pge2 area (counts), read-out: COX2 2 minutes pge2 area (counts) Avg. IC50
[8] = 10 minutes, readout pge2 area (counts), average LLE
[9] = 10 minutes, readout pge2 area (counts), read-out: COX2 10 minutes pge2 area (counts) Avg. IC50

| SMILES | efflux ratio (MDR1) | Papp A→B (MDR1) | Papp B→A (MDR1) | COX2 2 minutes pge2/pge2d4 area ratio Avg. LLE [1, 4] | pIC50 [1, 5] | COX2 2 minutes pge2 area (counts) Avg. LLE [1, 6] | pIC50 [1, 7] | Human Plasma Protein Stability % Remaining Avg [2] | fraction unbound [3] | Rat Microsome Stability % Remaining Avg (Rat Microsome Stability) | COX2 10 minutes pge2 area (counts) Avg. LLE [1, 8] | pIC50 [1, 9] | COX2 30 minutes pge2 area (counts) Avg. LLE ([1]; 30 minutes, readout pge2 area (counts), average LLE) | pIC50 ([1]; 30 minutes, readout pge2 area (counts), read-out: COX2 30 minutes pge2 area (counts) Avg. IC50) |
| --- | --- | --- | --- | --- | --- | --- | --- | --- | --- | --- | --- | --- | --- | --- |
| CS(=O)(=O)c1ccc(-c2cccc(OCc3cccs3)n2)cc1 [Compound 1, 2-(4-methanesulfonylphenyl)-6-[(thiophen-2-yl)methoxy]pyridine] | 0.9 | 33.7 ×10⁻⁶ cm/s | 29.9 ×10⁻⁶ cm/s | 4.864 | 8.48 | 4.806 | 8.44 | 94% |  |  |  |  |  |  |
| CS(=O)(=O)c1ccc(-c2nc(NCc3cccs3)cc3ccoc23)cc1 [Compound 2] |  |  |  | 3.981 | 8.29 | 3.975 | 8.26 | 99% |  |  |  |  |  |  |
| CS(=O)(=O)c1ccc(-c2cc(F)cc(NCc3ccco3)n2)cc1 [Compound 14] |  |  |  | 5.172 | 8.05 | 5.203 | 8.03 | 118% |  |  |  |  |  |  |
| CS(=O)(=O)c1ccc(-c2ccc(F)c(NCc3ccco3)n2)cc1 [Compound 15] |  |  |  | 5.1257 | 8.05 | 5.098 | 8.02 | 108% |  |  |  |  |  |  |
| CS(=O)(=O)c1ccc(-c2cccc(OCc3ccoc3)n2)cc1 [Compound 16] |  |  |  | 4.9079 | 8.04 | 4.932 | 8.06 | 121% |  |  |  |  |  |  |
| COc1ccc(NCc2cccs2)nc1-c1ccc(S(C)(=O)=O)cc1 [Compound 17] |  |  |  | 4.653 | 8.02 | 4.644 | 8.00 | 95% | 0.012 | 0.2% |  |  |  |  |
| CS(=O)(=O)c1ccc(-c2cncc(OCc3cccs3)n2)cc1 [Compound 19] |  |  |  | 5.643 | 7.99 | 5.681 | 8.05 | 92.4% |  |  | 6.3861 | 8.82 |  |  |
| Cc1occc1CNc1cccc(-c2ccc(S(C)(=O)=O)cc2)n1 [Compound 21] |  |  |  | 4.818 | 7.96 | 4.716 | 7.86 | 99% |  |  |  |  |  |  |
| CS(=O)(=O)c1ccc(-c2cccc(NCc3ccc(F)o3)n2)cc1 [Compound 23] |  |  |  | 4.592 | 7.94 | 4.619 | 7.97 | 97% |  |  |  |  |  |  |
| CS(=O)(=O)c1ccc(-c2cccc(NCc3cccs3)n2)cc1 [Compound 24] |  |  |  |  | 7.93 |  | 7.99 | 100% |  | 6.9% |  |  |  |  |
| COc1ncc(NCc2cccs2)nc1-c1ccc(S(C)(=O)=O)cc1 [Compound 29] |  |  |  | 5.399 | 7.83 | 5.474 | 7.84 | 93.9% |  | 2.2% |  |  |  |  |
| CS(=O)(=O)c1ccc(-c2ccc(F)c(NCc3ccoc3)n2)cc1 [Compound 33] |  |  |  | 4.757 | 7.79 | 4.796 | 7.82 | 100% |  |  |  |  |  |  |
| CS(=O)(=O)c1ccc(-c2cc(F)cc(NCc3ccoc3)n2)cc1 [Compound 34] |  |  |  | 4.826 | 7.79 | 4.752 | 7.74 | 100% |  |  |  |  |  |  |
| CS(=O)(=O)c1ccc(-c2cccc(/C=C\c3ccoc3)n2)cc1 [Compound 35, 2-[(Z)-2-(furan-3-yl)ethenyl]-6-(4-methanesulfonylphenyl)pyr] |  |  |  | 4.232 | 7.76 | 4.214 | 7.76 | 97% | 0.011 |  |  |  |  |  |
| COc1ncc(NCc2ccoc2)nc1-c1ccc(S(C)(=O)=O)cc1 [Compound 44] | 1.2 | 39.6 ×10⁻⁶ cm/s | 47.2 ×10⁻⁶ cm/s | 5.722 | 7.71 | 5.725 | 7.70 |  |  | 5.3% |  |  |  |  |
| COc1cc(NCc2cccs2)nc(-c2ccc(S(C)(=O)=O)cc2)c1 [Compound 50] |  |  |  | 4.261 | 7.64 | 4.341 | 7.70 |  |  |  | 4.996 | 8.30 | 5.9869 | 9.38 |
